# Test results reported in ChEMBL document CHEMBL1137493, “Synthesis and potent antitumor activity of new arylamino derivatives of nor-beta-lapachone and nor-alpha-lapachone” (Bioorg Med Chem, 2007).
# Legend:
# [1] = tested on: SF-295; assay: Cytotoxicity against human SF295 cells after 72 hrs by MTT assay; format: functional, cell-based; settings: SF-295, 72 h
# [2] = tested on: B16; assay: Cytotoxicity against mouse B16 cells after 72 hrs by MTT assay; format: functional, cell-based; settings: B16, 72 h
# [3] = tested on: HCT-8; assay: Cytotoxicity against human HCT8 cells after 72 hrs by MTT assay; format: functional, cell-based; settings: HCT-8, 72 h
# [4] = tested on: PC-3; assay: Cytotoxicity against human PC3 cells after 72 hrs by MTT assay; format: cell-based; settings: PC-3, 72 h
# [5] = tested on: HL-60; assay: Cytotoxicity against human HL60 cells after 72 hrs by MTT assay; format: functional, cell-based; settings: HL-60, 72 h
# [6] = tested on: MDA-MB-435; assay: Cytotoxicity against human MDA-MB-435 cells after 72 hrs by MTT assay; format: functional, cell-based; settings: MDA-MB-435, 72 h
# [7] = Toxicity assessed as hemolytic activity against mouse erythrocyte; format: cell-based; settings: mouse erythrocytes
# [8] = tested on: L929; assay: Cytotoxicity against mouse L929 cells after 72 hrs by MTT assay; format: cell-based; settings: L929, 72 h
SMILES,IC50 [1] [µg/mL],IC50 [2] [µg/mL],IC50 [3] [µg/mL],IC50 [4] [µg/mL],IC50 [5] [µg/mL],IC50 [6] [µg/mL],EC50 [7] [µg/mL],IC50 [8] [µg/mL]
COc1cccc2c1C(=O)c1c(O)c3c(c(O)c1C2=O)C[C@@](O)(C(=O)CO)C[C@@H]3O[C@H]1C[C@H](N)[C@H](O)[C@H](C)O1 [DOXORUBICIN],0.25,0.03,0.04,0.24,–,–,–,–
CC1(C)CC2=C(O1)c1ccccc1C(=O)C2=O [NOR-BETA-LAPACHONE],0.36,–,0.31,–,0.4,0.07,> 200,–
Cc1ccc(C)c(NC2C3=C(OC2(C)C)c2ccccc2C(=O)C3=O)c1 (stereo not given),2.08,3.03,1.59,0.32,1.27,0.27,> 200,> 5
CC1(C)OC2=C(C(=O)c3ccccc3C2=O)C1Nc1ccccc1 (stereo not given),2.52,1,1.43,1.34,2.99,0.89,> 200,3.08
CC1(C)OC2=C(C(=O)C(=O)c3ccccc32)C1Nc1cccc([N+](=O)[O-])c1 (stereo not given),0.5,0.43,0.64,0.41,0.33,0.23,> 200,0.42
CC1(C)OC2=C(C(=O)C(=O)c3ccccc32)C1Nc1ccc(F)cc1 (stereo not given),0.59,0.42,0.51,0.31,0.32,0.12,> 200,0.52
CC1(C)OC2=C(C(=O)C(=O)c3ccccc32)C1Nc1cccc(Br)c1 (stereo not given),0.93,0.48,0.7,0.46,0.5,0.2,> 200,1.02
CC1(C)OC2=C(C(=O)C(=O)c3ccccc32)C1Nc1ccccc1 (stereo not given),0.89,0.74,0.99,0.31,0.66,0.3,> 200,2.72
CC1(C)OC2=C(C(=O)C(=O)c3ccccc32)C1Nc1cccc(Cl)c1 (stereo not given),0.36,0.56,0.51,0.49,0.39,0.17,> 200,1.16
CC1(C)CCC2=C(O1)c1ccccc1C(=O)C2=O [LAPACHONE],0.22,–,0.2,–,0.4,0.06,> 200,–
